The values below come from patent US20250032557A1, “Novel Strain Having Antagonism Against Proteus Mirabilis and Excellent Effect on Neurodegenerative Disease, and use Thereof” (METACEN THERAPEUTICS CO., LTD, priority 2021, published 2025).

The series is described as follows: Protective ability against MPP^+ induced apoptosis of neurons (WST-1 cell viability). As to conditions: human, MPP^+ 1 mM alone, read-out: Cell viability % compared to control. It counts as cell-based. Here is the method: The following experiment was performed to evaluate the protective ability against apoptosis of neurons caused by MPP^+, a Parkinson's disease-inducing toxicity, in differentiated SH-Sy5y cells (brain neurons) for the Weissella cibaria strains shown in Table 2 above.
Thereafter, the existing medium was removed and replaced with 0.5% fetal bovine serum DMEM medium to which a sample was added at various concentrations. After 4 hours, the cells were treated with MPP^+ neurotoxicity at a concentration of 1 mM and cultured for an additional 44 hours. Thereafter, the medium was treated with the WST-1 solution and cultured for 2 hours to induce a reduction reaction, and then the absorbance was measured at 450 nm using an ELISA microplate reader.

Molecules are shown by their SMILES.

Consider `C[n+]1ccc(-c2ccccc2)cc1` [MPP^+, 1-methyl-4-phenylpyridinium iodide], for which the viability (commonly a per cent measure of how many cells are alive, often set against a control) at 44 h, 1 mM was 53%.
